Measured values from BigSolDB 2.1.

C1=Cc2cccc3cccc1c23
Settings | solubility (mole fraction)
in ethanol, 278.1 K | 0.00462
in ethanol, 283.53 K | 0.00579
in ethanol, 288.25 K | 0.00709
in ethanol, 293.25 K | 0.00891
in ethanol, 298.2 K | 0.0108
in ethanol, 303.2 K | 0.0133
in ethanol, 308.2 K | 0.0165
in ethanol, 313.05 K | 0.0197
in ethanol, 318.25 K | 0.0245
in ethanol, 323.15 K | 0.0296
in isopropanol, 278.3 K | 0.00469
in isopropanol, 283.07 K | 0.00592
in isopropanol, 288.33 K | 0.0077
in isopropanol, 293.2 K | 0.00967
in isopropanol, 298.07 K | 0.012
in isopropanol, 303.3 K | 0.0152
in isopropanol, 308.05 K | 0.0189
in isopropanol, 312.95 K | 0.0236
in isopropanol, 318.4 K | 0.0302
in isopropanol, 323.25 K | 0.0372
in n-butanol, 278.25 K | 0.0101
in n-butanol, 283.05 K | 0.0122
in n-butanol, 288.05 K | 0.0154
in n-butanol, 293.25 K | 0.019
in n-butanol, 298.25 K | 0.0237
in n-butanol, 303.15 K | 0.029
in n-butanol, 308.1 K | 0.0349
in n-butanol, 313.2 K | 0.0427
in n-butanol, 318.05 K | 0.0525
in n-butanol, 323.05 K | 0.0639
in toluene, 278.47 K | 0.104
in toluene, 283.33 K | 0.122
in toluene, 288.1 K | 0.142
in toluene, 293.15 K | 0.167
in toluene, 298.23 K | 0.194
in toluene, 303.15 K | 0.224
in toluene, 307.95 K | 0.256
in toluene, 312.95 K | 0.299
in toluene, 318.3 K | 0.346
in toluene, 323.2 K | 0.398
